Counter-ions that a name gives are not always drawn. Like-named read-outs stand apart in the source and are kept apart here.
Assays:
[1] = test system: Jurkat HIV-luciferase clones; assay: Jurkat latency reversal assay; assay type: cell-based; settings: Homo sapiens, Jurkat
How it was run: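 Three pooled Jurkat HIV-luciferase clones (C16, I15, N6; 5,000 cells/well, maintained with 500 nM EFV) exposed to 3-fold, 14-point titrations (10 μM to 2.1 pM, 0.5% DMSO) in duplicate for 48 h at 37 °C. Luciferase luminescence read; EC50 and maximal % activation versus vehicle from four-parameter logistic fit.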

p100/p52 = p100/p52 Western blot (WB) assay; assay type: cell-based, human; settings: Homo sapiens
Method: Cell cultures were set up to evaluate several SMACm compounds. Frozen PBMC cells from healthy donors were thawed and plated in 2 ml deepwell plates at 2×10^6 cells/ml. Serial dilutions of each compound was carried out as a 7 fold 1:6 dilution with the starting final dose of 1000 nM. Cells were then combined with compound and place at 37° for 24 hrs. The following day cells were pelleted and placed at −80 until lysis.
In preparation for cell lysis, the frozen cell pellets and an aliquot of NP40 Cell Lysis Buffer (Invitrogen, Part #FNN0021), as well as an aliquot of 10× Protease Inhibitor Cocktail (Sigma, Part #P-2714) are thawed on ice. Once thawed, the complete lysis buffer is prepared by adding 10% final volume PI cocktail to the NP40 buffer and then adding in sufficient volume of 0.1 M PMSF (Sigma, Part #93482) and 1 M DTT (Sigma, Part #43816) to create a final concentration of 1 mM each in the complete lysis buffer. Cell lysis is then carried out by resuspending each cell pellet in 30 μL per 10^6 cells then incubating on ice for 30 minutes with vigorous vortexing every 10 minutes. The lysed cells are then centrifuged at 13K RPM for 10 minutes at 4° C. in a refrigerated microcentrifuge. The supernatants (lysates) are then transferred into new microcentrifuge tubes and either stored at −80° or utilized immediately for protein concentration and Western blot analysis.
Protein concentration for each lysate is determined using a detergent compatible Bradford assay (Pierce, Part #23246) following the manufacturer's microplate instructions.
Capillary Western analysis were performed using the ProteinSimple Jess System. A total of 1 ug of cell lysate was prepared according to the provided protocol supplied by ProteinSimple. The primary antibody for p100/p52 (Cell, Signaling #3017) is diluted 1:10 for use in the Jess system. The 12-230 kDa Jess Seperation Module capillary cartridges Separation Module (SM-W004) is used in conjunction with the Anti-Rabbit Secondary NIR conjugate (043-819). The Separation module includes prefilled plates that the samples, primary and secondary antibodies, as well as protein normalization reagent and diluents are loaded onto to perform separation and detection. Once the assay has run, the data is then analyzed utilizing the Compass software provided by ProteinSimple.
Alternatively to capillary electrophoresis, traditional immunoblot assays were carried out, 10 μg of cell lysate was loaded per well into 4-20% Tris-Glycine SDS-PAGE gels. Protein from the SDS-PAGE gels were transferred to Turbo Midi PVDF Transfer Packs (BioRad) using the “Mixed MW” protocol for one Midi Format Gel (constant 2.5 A up to 25V, for 7 minutes) of the Trans-Blot Turbo Transfer System (Bio-Rad) with premade Trans-Blot per the manufacturer's instructions. After transfer, PVDF membranes were blocked in 5% bovine serum albumin (BSA) in 1×TBS (BioRad) with 0.1% Tween-20 for 1 hour at room temperature with gentle rocking. Primary antibodies were added and incubated overnight at 4° C. (anti-p100/p52, Cell Signaling Technology #3017, 1:1000; anti-Actin-HRP conjugate, Abcam #49900, 1:30,000). Following primary staining, the membrane washed three times with 1× Tris Buffered Saline (TBS)+0.1% TWEEN® 20 for 10 minutes each wash. After washing, the membrane was incubated in 5% BSA in 1×TBS+0.1% TWEEN® 20 with the appropriate secondary antibody for 2 hours at room temperature. Following secondary stain the membrane was washed twice for 10 minutes with 1×TBS+0.1% TWEEN® 20 followed by a 10-minute wash with 1×TBS. The membrane was then patted dry with filter paper and an image was captured of the undeveloped membrane on the ChemiDoc MP Imaging System using Image Lab software (BioRad). Sufficient ECL reagent (GE Healthcare) was used to cover the membrane and a series of images were taken starting with 0.001 second and doubling to tripling the exposure time until the luminescence from the developed membrane saturated the image. […]

NFKB2 = assay: NFkB2 gene induction; assay type: cell-based, human; settings: Homo sapiens, CD4+ T, 24 h, read-out: NFkB2 gene induction EC50 (nM)
Method: 5×10^5 normal donor CD4 T cells were treated for 24h with serial dilutions of compounds starting at 1.0 μM at 6 fold, 7 places. Total RNA was isolated using the RNEasy Mini kit (Qiagen) per the manufacturer's instructions. The following TaqMan primer probe sets were sourced from Applied Biosystems: Hs00174517_m1 (NFKB2) and Hs02800695 (HPRT1). TaqMan-based real-time PCR (Fast Virus 1-Step Master Mix, Applied Biosystems) was used to amplify host genes of interest. Gene expression was normalized to HPRT1 and comparative threshold cycle (CT) method (ΔΔCT) was used for relative fold change of gene expression as compared to untreated cells. The data was analyzed by QuantStudio3 Real-Time PCR System.

[2] = Table 4 summary, read-out: Jurkat EC50
[3] = PBMC, 24 h, read-out: p100/p52 Western Blot (WB) EC50 (nM)

| Compound | EC50 ([1]; 48 h) | further results |
| --- | --- | --- |
| CN[C@@H](C)C(=O)N[C@H]1CCO[C@H]2CC(C)(C)C(C(=O)Nc3ccccc3SSc3ccccc3NC(=O)C3N4C(=O)[C@@H](NC(=O)[C@H](C)NC)CCO[C@H]4CC3(C)C)N2C1=O (some centres unmarked) [Formula F, reference compound] |  | EC50 ([1]; 48 h, Table 4 summary, read-out: Jurkat EC50): ~1 µM; EC50 (p100/p52; PBMC cells from healthy donors, 24 hrs, read-out: p100/p52 Western Blot (WB) EC50): > 1000 nM |
| CN[C@@H](C)C(=O)N[C@H]1CCS[C@H]2CC(C)(C)[C@@H](C(=O)N[C@H]3c4ccccc4C[C@H]3OCC#CC#CCO[C@@H]3Cc4ccccc4[C@@H]3NC(=O)[C@H]3N4C(=O)[C@@H](NC(=O)[C@H](C)NC)CCS[C@H]4CC3(C)C)N2C1=O [compound 13, (4S,4′S,7S,7′S,9aS,9a′S)-N,N′-((1S,1′S,2R,2′R)-(hexa-2,4-diyne-1,6-diylbis(oxy))bis(2,3-dihydro-1H-indene-2,1-diyl))bis(8,8-dimethyl-4-((S)-2-(methylamino)propanamido)-5-oxooctahydropyrrolo[2,1-b][1,3]thiazepine-7-carboxamide) dihydrochloride] | 0.0093 µM | EC50 [1, 2]: 0.0093 µM; EC50 (p100/p52; [3]): 12.6 nM; EC50 (NFKB2): 73 nM |
| CN[C@@H](C)C(=O)N[C@H]1CCS[C@H]2CC(C)(C)[C@@H](C(=O)N[C@H]3c4ccccc4C[C@H]3OCCCCCCO[C@@H]3Cc4ccccc4[C@@H]3NC(=O)[C@H]3N4C(=O)[C@@H](NC(=O)[C@H](C)NC)CCS[C@H]4CC3(C)C)N2C1=O [compound 20, (4S,4′S,7S,7′S,9aS,9a′S)-N,N′-((1S,1′S,2R,2′R)-(hexane-1,6-diylbis(oxy))bis(2,3-dihydro-1H-indene-2,1-diyl))bis(8,8-dimethyl-4-((S)-2-(methylamino)propanamido)-5-oxooctahydropyrrolo[2,1-b][1,3]thiazepine-7-carboxamide)] | 0.0119 µM | EC50 [1, 2]: 0.0119 µM; EC50 (p100/p52; [3]): 3.1 nM; EC50 (NFKB2): 75 nM |
| CN[C@@H](C)C(=O)N[C@H]1CCS[C@H]2CC(C)(C)[C@@H](C(=O)N[C@H](COCc3ccc4ccc(COC[C@@H](NC(=O)[C@H]5N6C(=O)[C@@H](NC(=O)[C@H](C)NC)CCS[C@H]6CC5(C)C)c5ccccc5)cc4c3)c3ccccc3)N2C1=O [compound 56, (4S,4′S,7S,7′S,9aS,9a′S)-N,N′-((1S,1′S)-((naphthalene-2,7-diylbis(methylene))bis(oxy))bis(1-phenylethane-2,1-diyl))bis(8,8-dimethyl-4-((S)-2-(methylamino)propanamido)-5-oxooctahydropyrrolo[2,1-b][1,3]thiazepine-7-carboxamide)] | 0.0029 µM |  |
| CN[C@@H](C)C(=O)N[C@H]1CCS[C@H]2CC(C)(C)[C@@H](C(=O)N[C@H]3c4ccccc4C[C@H]3OCCCCCCCCCCO[C@@H]3Cc4ccccc4[C@@H]3NC(=O)[C@H]3N4C(=O)[C@@H](NC(=O)[C@H](C)NC)CCS[C@H]4CC3(C)C)N2C1=O [compound 57, (4S,4′S,7S,7′S,9aS,9a′S)-N,N′-((1S,1′S,2R,2′R)-(decane-1,10-diylbis(oxy))bis(2,3-dihydro-1H-indene-2,1-diyl))bis(8,8-dimethyl-4-((S)-2-(methylamino)propanamido)-5-oxooctahydropyrrolo[2,1-b][1,3]thiazepine-7-carboxamide) dihydrochloride] | 0.0085 µM |  |
| CN[C@@H](C)C(=O)N[C@H]1CCS[C@H]2CC(C)(C)[C@@H](C(=O)N[C@H](COCCCCCCCCOC[C@@H](NC(=O)[C@H]3N4C(=O)[C@@H](NC(=O)[C@H](C)NC)CCS[C@H]4CC3(C)C)c3ccccc3)c3ccccc3)N2C1=O [compound 58, (4S,4′S,7S,7′S,9aS,9a′S)-N,N′-((1S,1′S)-(octane-1,8-diylbis(oxy))bis(1-phenylethane-2,1-diyl))bis(8,8-dimethyl-4-((S)-2-(methylamino)propanamido)-5-oxooctahydropyrrolo[2,1-b][1,3]thiazepine-7-carboxamide) dihydrochloride] | 0.0045 µM |  |
| CN[C@@H](C)C(=O)N[C@H]1CCS[C@H]2CC(C)(C)[C@@H](C(=O)N[C@H](COCCCCCCCCCCOC[C@@H](NC(=O)[C@H]3N4C(=O)[C@@H](NC(=O)[C@H](C)NC)CCS[C@H]4CC3(C)C)c3ccccc3)c3ccccc3)N2C1=O [compound 60, (4S,4′S,7S,7′S,9aS,9a′S)-N,N′-((1S,1′S)-(decane-1,10-diylbis(oxy))bis(1-phenylethane-2,1-diyl))bis(8,8-dimethyl-4-((S)-2-(methylamino)propanamido)-5-oxooctahydropyrrolo[2,1-b][1,3]thiazepine-7-carboxamide) dihydrochloride] | 0.0035 µM |  |
| CN[C@@H](C)C(=O)N[C@H]1CCS[C@H]2CC(C)(C)[C@@H](C(=O)N[C@H](COCCCCCCCCCCCCOC[C@@H](NC(=O)[C@H]3N4C(=O)[C@@H](NC(=O)[C@H](C)NC)CCS[C@H]4CC3(C)C)c3ccccc3)c3ccccc3)N2C1=O [compound 61, (4S,4′S,7S,7′S,9aS,9a′S)-N,N′-((1S,1′S)-(dodecane-1,12-diylbis(oxy))bis(1-phenylethane-2,1-diyl))bis(8,8-dimethyl-4-((S)-2-(methylamino)propanamido)-5-oxooctahydropyrrolo[2,1-b][1,3]thiazepine-7-carboxamide)] | 0.0118 µM |  |
| CN[C@@H](C)C(=O)N[C@H]1CCS[C@H]2CC(C)(C)[C@@H](C(=O)N[C@H](COCc3ccc4cc(COC[C@@H](NC(=O)[C@H]5N6C(=O)[C@@H](NC(=O)[C@H](C)NC)CCS[C@H]6CC5(C)C)c5ccccc5)ccc4c3)c3ccccc3)N2C1=O [compound 62, (4S,4′S,7S,7′S,9aS,9a′S)-N,N′-((1S,1′S)-((naphthalene-2,6-diylbis(methylene))bis(oxy))bis(1-phenylethane-2,1-diyl))bis(8,8-dimethyl-4-((S)-2-(methylamino)propanamido)-5-oxooctahydropyrrolo[2,1-b][1,3]thiazepine-7-carboxamide)] | 0.0042 µM |  |
| CN[C@@H](C)C(=O)N[C@H]1CCS[C@H]2CC(C)(C)[C@@H](C(=O)N[C@H]3c4ccccc4C[C@H]3OCCCCCCCCO[C@@H]3Cc4ccccc4[C@@H]3NC(=O)[C@H]3N4C(=O)[C@@H](NC(=O)[C@H](C)NC)CCS[C@H]4CC3(C)C)N2C1=O [compound 63, (4S,4′S,7S,7′S,9aS,9a′S)-N,N′-((1S,1′S,2R,2′R)-(octane-1,8-diylbis(oxy))bis(2,3-dihydro-1H-indene-2,1-diyl))bis(8,8-dimethyl-4-((S)-2-(methylamino)propanamido)-5-oxooctahydropyrrolo[2,1-b][1,3]thiazepine-7-carboxamide) dihydrochloride] | 0.0116 µM |  |

From patent publication US11492361B2, “Compounds useful in HIV therapy” (GlaxoSmithKline Intellectual Property Development Limited, priority 2018, dated 2022)
